A short description of data set [1]: Release control, gum base content different with respect to composition (two-module compressed chewing gum tablet). The following applies: first layer: NPR outside the gum base granules; second layer: Na2CO3 approx. 50 Wt-% outside and approx. 50 Wt-% incorporated in the granules. Here is the method: (§1) Control of the release was tested for chewing gum tablets comprising two modules with different gum base content and a different active ingredient in each of them.
In this example a gum base content different with respect to composition was investigated. In the first layer the active ingredient (NPR) was added to the chewing gum composition outside the gum base granules and in the second layer the active ingredient (Na2CO3 pH control agent) was added approximately 50 Wt-% to the chewing gum composition outside the gum base granules and approximately 50 Wt-% incorporated in the granules.
To ensure that the result of this example was not due to different API in the two layers, the example was further supplemented with a test with the same amount of a same API incorporated in the granules and added directly to the composition respectively, where it was again seen that the release was dependent on the chewing gum composition

A short description of data set [2]: Release control, gum base content different with respect to weight (two-module compressed chewing gum tablet). The following applies: first layer: NPR with a large amount of gum base; second layer: Na2CO3 with a small amount of gum base. On the procedure: as §1
In this example a gum base content different with respect to weight was investigated. In the first layer the active ingredient (NPR) was present with a large amount of gum base and in the second layer the active ingredient (Na2CO3 pH control agent) was present with a small amount of gum base.
To ensure that the result of this example was not due to different API in the two layers, the example was further supplemented with a test with two different weights of the same API in the compositions in the two layers, where it was again seen that the release was dependent on the weight of the gum base content in the chewing gum composition.

Data set [3] is described as follows: Release control, different size of applied chewing gum granules (two-module compressed chewing gum tablet). The following applies: first layer: NPR with granules of relatively smaller average diameter; second layer: Na2CO3 with granules of relatively larger average diameter. Here is the method: as §1
In this example a gum base content different with respect to size of applied chewing gum granules was investigated.
In the first layer the active ingredient (NPR) was present with chewing gum granules with a relatively smaller average diameter and in the second layer the active ingredient (Na2CO3 pH control agent) was present with chewing gum granules with a relatively larger average diameter.
To ensure that the result of this example was not due to different API in the two layers, the example was further supplemented with a test with the same API in two compositions of different chewing gum granule sizes. Here it was again seen that the release was dependent on the size of the chewing gum granules used in the layers of the gum base content in the chewing gum composition.

Entries after “also recorded” stand apart in the source; their conditions may differ.

Turning to `O=C([O-])[O-].[Na+].[Na+]` [Na2CO3], the “release of active ingredient from the chewing gum tablet” value in data set [1] is on record as “fast release of part of the pH control agent; also recorded: slower release of the remaining part of the pH control agent”; in data set [2] it was “faster than the release of the NPR”; in data set [3], “faster than the release of the NPR”.

The record behind these values is patent publication US8623331B2, “Compressed chewing gum tablet” (Fertin Pharma A/S, priority 2007, dated 2014).
